The data set in a line: Acute intervention: nutrikinetics of plasma metabolites after ingestion of O. europaea extract (untargeted HPLC-ESI-QTOF-MS). How it is done:
A total of 25 healthy individuals participated, with an average age of 27 ± 9 years and a mean body mass index (BMI) of 23 ± 3 kg/m^2. None of the participants were taking any medications or nutritional supplements nor did they have any chronic diseases or gastrointestinal issues. The sample size was established based on findings from previous bioavailability research.[14] All participants provided informed consent before participating in the study.
The intervention study was carried out at Miguel Hernández University. Following an overnight fast, the volunteers were categorized into the subsequent groups: a subgroup to evaluate the LC leaf extract (n = 8), another for the OE leaf extract (n = 8), and the placebo subgroup (n = 9). This was a double-blind study, in which sample collection and treatment were carried out uniformly across all three subgroups.
Water was provided ad libitum. Prior to the ingestion of the capsule, a nurse inserted a cannula into the ulnar vein of each volunteer’s nondominant arm, and blood samples were drawn into EDTA-coated tubes at baseline (t = 0). Blood samples were then collected at 0.5, 1, 2, 4, 6, 8, and 10 h after the consumption of the 500 mg capsule. Plasma was separated through centrifugation (10 min at 3000 rpm and 4 °C) and stored at −80 °C until further analysis.
Plasma samples were initially treated using a mixture of methanol and ethanol (50:50; v:v) to remove proteins, following previously reported protocols.[19] During the sample treatment, pooled quality controls (pooled-QC) were prepared by combining equal aliquots from each sample. These QC samples were processed by using the same protocols as the experimental biological samples.
A reversed-phase analytical C18 column (Agilent Zorbax Eclipse Plus, 1.8 μm, 4.6 × 150 mm^2) with a protective cartridge with the same packing was used. MS data were acquired in negative ionization mode, operating in full scan across a mass-to-charge ratio (m/z) range of 50–1700. The analytical method used was adapted from that described by Villegas-Aguilar et al.[19]
Metabolite nutrikinetics were studied using PKSolver, an add-in program for pharmacokinetic data analysis in Microsoft Excel. The time to reach the maximum concentration (observed Tmax) was calculated for each significant metabolite. As an untargeted metabolomic approach was used to detect the circulating metabolites, these were not quantified. Therefore, the maximum concentration (Cmax) and area under the curve (AUC) parameters were calculated in a relative way by using the deconvoluted chromatographic areas. […] Statistical differences were determined by unpaired t tests. All p values less than 0.05 were considered statistically significant.

[1] abbreviates: 0.5 h after O. europaea extract.
Where [2] appears, read: human plasma, 500 mg capsule of O. europaea (OE) extract, oral, mean ± SD.

For “10-hydroxy-7 -methoxyoleuropein [10-hydroxy-7-methoxyoleuropein isomer 1]”, the “mean chromatographic area in plasma, T0.5” value under setting [1] was found to be 0. For the same molecule, for the setting “1 h after O. europaea extract”, the “mean chromatographic area in plasma, T1” value was found to be 61. Further, the “mean chromatographic area in plasma, T2” value (2 h after O. europaea extract) is 107. For the same molecule, where the note is “4 h after O. europaea extract”, the “mean chromatographic area in plasma, T4” value is 16. The “mean chromatographic area in plasma, T6” value (6 h after O. europaea extract) was found to be 0. In addition, where the note is “8 h after O. europaea extract”, the “mean chromatographic area in plasma, T8” value came out at 0. Also, the “mean chromatographic area in plasma, T10” value (10 h after O. europaea extract) was determined as 0. Under setting [2], the “Cmax: relative maximum plasma level” value is recorded as 107 ± 22 relative chromatographic area and the “observed Tmax: time required to reach Cmax” value (from here on “observed Tmax: time required”) amounted to 2 ± 0 h.

As for “10-hydroxy-7 -methoxyoleuropein [10-hydroxy-7-methoxyoleuropein isomer 2]”, under setting [1], the “mean chromatographic area in plasma, T0.5” value was determined as 11. Also, the “mean chromatographic area in plasma, T1” value (1 h after O. europaea extract) was 164. For the same molecule, under “2 h after O. europaea extract”, the “mean chromatographic area in plasma, T2” value is 229. Moreover, the “mean chromatographic area in plasma, T4” value (4 h after O. europaea extract) is 148. For the same molecule, the “mean chromatographic area in plasma, T6” value (6 h after O. europaea extract) came out at 34. Further, the “mean chromatographic area in plasma, T8” value (8 h after O. europaea extract) is 0. For the same molecule, for the setting “10 h after O. europaea extract”, the “mean chromatographic area in plasma, T10” value is 0. Under setting [2], the “Cmax: relative maximum plasma level” value is on record as 241 ± 89 relative chromatographic area and the “observed Tmax: time required” value is listed as 1.9 ± 0.3 h.

Consider `OC[C@H]1O[C@@H](OCc2ccoc2)[C@H](O)[C@@H](O)[C@@H]1O` (single isomer, unassigned; isomer 1) [3-furanmethanol glucoside isomer 1, 3-furanmethanol glucoside], for which, under setting [1], the “mean chromatographic area in plasma, T0.5” value turned out to be 27. Further, the “mean chromatographic area in plasma, T1” value (1 h after O. europaea extract) was 200. Under “2 h after O. europaea extract”, the “mean chromatographic area in plasma, T2” value was 184. Where the note is “4 h after O. europaea extract”, the “mean chromatographic area in plasma, T4” value is 107. Also, the “mean chromatographic area in plasma, T6” value (6 h after O. europaea extract) was found to be 17. Further, the “mean chromatographic area in plasma, T8” value (8 h after O. europaea extract) is on record as 0. The “mean chromatographic area in plasma, T10” value (10 h after O. europaea extract) was determined as 0. Besides, under setting [2], the “Cmax: relative maximum plasma level” value is reported as 236 ± 104 relative chromatographic area and the “observed Tmax: time required” value came to 1.6 ± 0.5 h.

On to `OC[C@H]1O[C@@H](OCc2ccoc2)[C@H](O)[C@@H](O)[C@@H]1O` (single isomer, unassigned; isomer 2) [3-furanmethanol glucoside isomer 2, 3-furanmethanol glucoside], for which the “mean chromatographic area in plasma, T0.5” value under setting [1] was determined as 625. In addition, under “1 h after O. europaea extract”, the “mean chromatographic area in plasma, T1” value was determined as 1234. For the setting “2 h after O. europaea extract”, the “mean chromatographic area in plasma, T2” value is reported as 961. Also, the “mean chromatographic area in plasma, T4” value (4 h after O. europaea extract) worked out at 483. Also, the “mean chromatographic area in plasma, T6” value (6 h after O. europaea extract) was 250. The “mean chromatographic area in plasma, T8” value (8 h after O. europaea extract) is listed as 113. Besides, the “mean chromatographic area in plasma, T10” value (10 h after O. europaea extract) is recorded as 0. Under setting [2], the “Cmax: relative maximum plasma level” value is 1234 ± 489 relative chromatographic area and the “observed Tmax: time required” value is 1 ± 0 h.

Regarding `COc1cc(C)cc(OC)c1OC` [1,2,3-trimethoxy-5-methyl benzene], under setting [1], the “mean chromatographic area in plasma, T0.5” value is 117. In addition, the “mean chromatographic area in plasma, T1” value (1 h after O. europaea extract) came to 221. Further, where the note is “2 h after O. europaea extract”, the “mean chromatographic area in plasma, T2” value was 105. For the same molecule, under “4 h after O. europaea extract”, the “mean chromatographic area in plasma, T4” value stood at 0. Further, for the setting “6 h after O. europaea extract”, the “mean chromatographic area in plasma, T6” value came out at 0. Besides, the “mean chromatographic area in plasma, T8” value (8 h after O. europaea extract) is listed as 0. The “mean chromatographic area in plasma, T10” value (10 h after O. europaea extract) stood at 0. Under setting [2], the “Cmax: relative maximum plasma level” value is 221 ± 72 relative chromatographic area and the “observed Tmax: time required” value was 1 ± 0 h.

As for `Oc1cc(O)c2c(c1)O[C@H](c1ccc(O)c(O)c1)[C@H](O)[C@H]2SCc1ccccc1` [4β-benzylthioepicatechin], the “mean chromatographic area in plasma, T0.5” value under setting [1] is given as 25. Further, the “mean chromatographic area in plasma, T1” value (1 h after O. europaea extract) was found to be 123. Moreover, the “mean chromatographic area in plasma, T2” value (2 h after O. europaea extract) was found to be 151. Moreover, the “mean chromatographic area in plasma, T4” value (4 h after O. europaea extract) stood at 50. For the same molecule, the “mean chromatographic area in plasma, T6” value (6 h after O. europaea extract) turned out to be 0. Where the note is “8 h after O. europaea extract”, the “mean chromatographic area in plasma, T8” value is 0. The “mean chromatographic area in plasma, T10” value (10 h after O. europaea extract) is on record as 0. Under setting [2], the “Cmax: relative maximum plasma level” value is 158 ± 62 relative chromatographic area and the “observed Tmax: time required” value is 1.7 ± 0.5 h.

Consider `COC(=O)C1=CO[C@H](O)/C(=C/CO)[C@@H]1CC(=O)OCCc1ccc(O)c(O)c1` [10-hydroxyoleuropein aglycone], for which, under setting [1], the “mean chromatographic area in plasma, T0.5” value worked out at 165. Also, the “mean chromatographic area in plasma, T1” value (1 h after O. europaea extract) is recorded as 142. In addition, the “mean chromatographic area in plasma, T2” value (2 h after O. europaea extract) came to 15. Besides, the “mean chromatographic area in plasma, T4” value (4 h after O. europaea extract) turned out to be 0. For the setting “6 h after O. europaea extract”, the “mean chromatographic area in plasma, T6” value was found to be 0. Besides, for the setting “8 h after O. europaea extract”, the “mean chromatographic area in plasma, T8” value is given as 0. Moreover, the “mean chromatographic area in plasma, T10” value (10 h after O. europaea extract) is on record as 0. Also, under setting [2], the “Cmax: relative maximum plasma level” value is reported as 194 ± 76 relative chromatographic area and the “observed Tmax: time required” value turned out to be 0.7 ± 0.2 h.

Turning to `O=C(/C=C/C1=CC(=O)C(=O)C=C1)OC1CC(O)(C(=O)O)CC(O)C1O` (stereo not drawn) [chlorogenoquinone], under setting [1], the “mean chromatographic area in plasma, T0.5” value is on record as 181. Moreover, the “mean chromatographic area in plasma, T1” value (1 h after O. europaea extract) is 315. For the same molecule, the “mean chromatographic area in plasma, T2” value (2 h after O. europaea extract) stood at 154. In addition, the “mean chromatographic area in plasma, T4” value (4 h after O. europaea extract) is 12. In addition, the “mean chromatographic area in plasma, T6” value (6 h after O. europaea extract) was 11. Moreover, where the note is “8 h after O. europaea extract”, the “mean chromatographic area in plasma, T8” value is on record as 0. Further, the “mean chromatographic area in plasma, T10” value (10 h after O. europaea extract) was found to be 0. Also, under setting [2], the “Cmax: relative maximum plasma level” value is listed as 324 ± 7 relative chromatographic area and the “observed Tmax: time required” value is 0.9 ± 0.2 h.

As for `C[C@]12CC[C@@H](O[C@@H]3O[C@H](C(=O)O)[C@@H](O)[C@H](O)[C@H]3O)C[C@@H]1CC[C@@H]1[C@@H]2C(=O)C[C@@]2(C)[C@H]1CC[C@]2(O)[C@@H](O)CO` [cortolone-3-glucuronide], under setting [1], the “mean chromatographic area in plasma, T0.5” value is given as 0. For the same molecule, where the note is “1 h after O. europaea extract”, the “mean chromatographic area in plasma, T1” value is given as 0. The “mean chromatographic area in plasma, T2” value (2 h after O. europaea extract) worked out at 0. In addition, under “4 h after O. europaea extract”, the “mean chromatographic area in plasma, T4” value is on record as 160. Further, where the note is “6 h after O. europaea extract”, the “mean chromatographic area in plasma, T6” value came to 82. For the same molecule, the “mean chromatographic area in plasma, T8” value (8 h after O. europaea extract) was determined as 63. The “mean chromatographic area in plasma, T10” value (10 h after O. europaea extract) came out at 0. For the same molecule, under setting [2], the “Cmax: relative maximum plasma level” value is listed as 163 ± 88 relative chromatographic area and the “observed Tmax: time required” value worked out at 4.4 ± 0.8 h.

For `O=C(O)CCCCCCCCC(=O)O` [debacic acid isomer 3, sebacic acid], where the note is “human, in vivo, po, 500 mg”, the “Cmax: relative maximum plasma level” value is reported as 330 ± 109 relative chromatographic area and the “observed Tmax: time required” value was 6 ± 2 h. In addition, for the setting “in vivo”, the “mean chromatographic area in plasma, T0.5” value is given as 13; the “mean chromatographic area in plasma, T1” value is given as 0; the “mean chromatographic area in plasma, T2” value stood at 33; the “mean chromatographic area in plasma, T4” value was found to be 209. Also, for the setting “in vivo”, the “mean chromatographic area in plasma, T6” value turned out to be 226; the “mean chromatographic area in plasma, T8” value came out at 178; the “mean chromatographic area in plasma, T10” value is reported as 141.

On to `O=C(O)CCCCCCCCC(=O)O` [decanedioic acid isomer 1, decanedioic acid], for which the “mean chromatographic area in plasma, T0.5” value under setting [1] turned out to be 0. Further, the “mean chromatographic area in plasma, T1” value (1 h after O. europaea extract) was 169. The “mean chromatographic area in plasma, T2” value (2 h after O. europaea extract) is reported as 232. Also, under “4 h after O. europaea extract”, the “mean chromatographic area in plasma, T4” value worked out at 167. Also, the “mean chromatographic area in plasma, T6” value (6 h after O. europaea extract) came to 68. In addition, the “mean chromatographic area in plasma, T8” value (8 h after O. europaea extract) came out at 11. In addition, for the setting “10 h after O. europaea extract”, the “mean chromatographic area in plasma, T10” value was 0. Further, under setting [2], the “Cmax: relative maximum plasma level” value is given as 232 ± 48 relative chromatographic area and the “observed Tmax: time required” value is 2 ± 0 h.

Turning to `O=C(O)CCCCCCCCC(=O)O` [decanedioic acid isomer 2, decanedioic acid], under setting [1], the “mean chromatographic area in plasma, T0.5” value was found to be 0. Further, the “mean chromatographic area in plasma, T1” value (1 h after O. europaea extract) came out at 0. Besides, the “mean chromatographic area in plasma, T2” value (2 h after O. europaea extract) is listed as 26. Also, the “mean chromatographic area in plasma, T4” value (4 h after O. europaea extract) stood at 47. Also, the “mean chromatographic area in plasma, T6” value (6 h after O. europaea extract) was determined as 84. Besides, the “mean chromatographic area in plasma, T8” value (8 h after O. europaea extract) is reported as 38. For the same molecule, the “mean chromatographic area in plasma, T10” value (10 h after O. europaea extract) amounted to 60. Also, under setting [2], the “Cmax: relative maximum plasma level” value was 112 ± 11 relative chromatographic area and the “observed Tmax: time required” value is 6 ± 3 h.

Values taken from paper PMC11544713, “The Application of Untargeted Metabolomic Approaches for the Search of Common Bioavailable Metabolites in Human Plasma Samples from Lippia citriodora and Olea europaea Extracts” (Journal of Agricultural and Food Chemistry, 2024).
